Test results as given in the SangsterLogP compilation.

Assay: method code SF-GLC, from DOI: 10.1016/0045-6535(89)90321-4

Row | Compound | logP
1 | Clc1ccc2c(c1)oc1c(Cl)c(Cl)c(Cl)cc12 | 6.06
2 | Clc1cc2c(oc3c(Cl)c(Cl)c(Cl)c(Cl)c32)c(Cl)c1Cl | 7.92
3 | Clc1cc(Cl)c2oc3c(Cl)cc(Cl)c(Cl)c3c2c1 | 6.34
4 | Clc1ccc2c(oc3c(Cl)ccc(Cl)c32)c1Cl | 6.15
5 | Clc1cc2c(cc1Cl)Oc1c(Cl)c(Cl)cc(Cl)c1O2 | 6.2
6 | Clc1ccc2oc3c(Cl)c(Cl)c(Cl)c(Cl)c3c2c1 | 6.79
7 | Clc1cc2c(oc3ccc(Cl)c(Cl)c32)c(Cl)c1Cl | 6.42
8 | Clc1cc2c(c(Cl)c1Cl)Oc1c(Cl)cccc1O2 | 6.39
9 | Clc1cc(Cl)c2c(c1)oc1c(Cl)cc(Cl)cc12 | 6.37
10 | Clc1cc(Cl)c2c(c1)Oc1c(cc(Cl)c(Cl)c1Cl)O2 | 6.53
11 | Clc1cc2oc3c(Cl)c(Cl)ccc3c2c(Cl)c1Cl | 6.26
12 | Clc1ccc(Cl)c2c1oc1c(Cl)ccc(Cl)c12 | 5.6
13 | Clc1cc2c(cc1Cl)Oc1c(Cl)ccc(Cl)c1O2 | 6.39
14 | Clc1cc2oc3c(Cl)cccc3c2c(Cl)c1Cl | 6.15
15 | Clc1c(Cl)c(Cl)c2c(oc3ccccc32)c1Cl | 6.17
16 | Clc1ccc2c(oc3ccc(Cl)c(Cl)c32)c1Cl | 6.25
17 | Clc1cc(Cl)c2c(c1)Oc1c(Cl)cc(Cl)cc1O2 | 6.29
18 | Clc1cc2c(c(Cl)c1Cl)Oc1c(Cl)ccc(Cl)c1O2 | 6.24
19 | Clc1cc2c(cc1Cl)Oc1c(cc(Cl)c(Cl)c1Cl)O2 | 6.64
20 | Clc1ccc2c(oc3c(Cl)c(Cl)cc(Cl)c32)c1Cl | 6.19
21 | Clc1cc2c(c(Cl)c1Cl)Oc1ccc(Cl)c(Cl)c1O2 | 6.74
22 | Clc1cc(Cl)c2c(c1)Oc1cc(Cl)c(Cl)cc1O2 | 6.3

Row | Compound | logP
23 | Clc1cc(Cl)c2oc3cc(Cl)c(Cl)cc3c2c1 | 6.73
24 | Clc1cc(Cl)c2oc3cc(Cl)c(Cl)c(Cl)c3c2c1 | 6.33
25 | Clc1cc(Cl)c2c(c1)Oc1cc(Cl)c(Cl)c(Cl)c1O2 | 6.4
26 | Clc1cc(Cl)c2c(oc3c(Cl)ccc(Cl)c32)c1Cl | 6.34
27 | Clc1cc(Cl)c2c(c1)Oc1c(ccc(Cl)c1Cl)O2 | 6.43
28 | Clc1cccc2c1Oc1c(Cl)c(Cl)c(Cl)c(Cl)c1O2 | 6.3
29 | Clc1ccc2c(c1)oc1c(Cl)c(Cl)c(Cl)c(Cl)c12 | 6.53
30 | Clc1cc(Cl)c2c(c1)oc1c(Cl)cc(Cl)c(Cl)c12 | 6.19
31 | Clc1cc2oc3c(Cl)cc(Cl)c(Cl)c3c2cc1Cl | 6.26
32 | Clc1cc(Cl)c2c(c1)oc1c(Cl)c(Cl)cc(Cl)c12 | 6.33
33 | Clc1cc2c(oc3c(Cl)c(Cl)ccc32)c(Cl)c1Cl | 6.47
34 | Clc1cc(Cl)c2c(c1)oc1cc(Cl)cc(Cl)c12 | 6.34
35 | Clc1ccc2c(oc3c(Cl)cc(Cl)c(Cl)c32)c1Cl | 6.27
36 | Clc1cc(Cl)c2oc3c(Cl)ccc(Cl)c3c2c1Cl | 6.59
37 | Clc1ccc2oc3c(Cl)cc(Cl)c(Cl)c3c2c1 | 6.31
38 | Clc1cc(Cl)c2oc3c(Cl)cc(Cl)cc3c2c1 | 6.17
39 | Clc1cc(Cl)c2oc3c(Cl)c(Cl)c(Cl)cc3c2c1 | 6.59
40 | Clc1cc(Cl)c2c(c1)oc1cc(Cl)c(Cl)cc12 | 6.34
41 | Clc1ccc2c(c1)Oc1c(Cl)c(Cl)c(Cl)c(Cl)c1O2 | 6.6
42 | Clc1cc2c(oc3c(Cl)ccc(Cl)c32)c(Cl)c1Cl | 6.53
43 | Clc1cc2c(cc1Cl)Oc1cc(Cl)c(Cl)cc1O2 | 6.42

Further lines, results first:

Row | logP | Compound
44 | 6.1 | Clc1ccc2c(c1)Oc1c(cc(Cl)c(Cl)c1Cl)O2
45 | 6.85 | Clc1cc(Cl)c2c(c1Cl)Oc1c(Cl)cc(Cl)c(Cl)c1O2
46 | 6.25 | Clc1cc(Cl)c2c(c1)oc1ccc(Cl)c(Cl)c12
47 | 6.15 | Clc1ccc2oc3cc(Cl)c(Cl)c(Cl)c3c2c1
48 | 6.31 | Clc1cc(Cl)c2c(oc3c(Cl)cccc32)c1Cl
49 | 6.17 | Clc1cc2c(oc3cccc(Cl)c32)c(Cl)c1Cl
50 | 6.85 | Clc1cc(Cl)c2c(c1Cl)Oc1c(Cl)c(Cl)cc(Cl)c1O2
51 | 5.89 | Clc1cc(Cl)c2c(oc3cccc(Cl)c32)c1Cl
52 | 6.1 | Clc1cc(Cl)c2c(c1Cl)Oc1c(Cl)cccc1O2
53 | 6.51 | Clc1cc(Cl)c2c(oc3ccc(Cl)c(Cl)c32)c1Cl
54 | 6.23 | Clc1cc2oc3ccc(Cl)c(Cl)c3c2cc1Cl
55 | 6.06 | Clc1cc2oc3cccc(Cl)c3c2c(Cl)c1Cl
56 | 7.59 | Clc1cc2c(c(Cl)c1Cl)Oc1c(Cl)cc(Cl)c(Cl)c1O2
57 | 6.25 | Clc1ccc2c(c1)Oc1c(Cl)cc(Cl)c(Cl)c1O2
58 | 6.86 | Clc1cc(Cl)c2c(c1)Oc1ccc(Cl)c(Cl)c1O2
59 | 6.13 | Clc1ccc2oc3c(Cl)c(Cl)cc(Cl)c3c2c1

Row | logP | Compound
60 | 6.38 | Clc1cc2c(cc1Cl)Oc1c(ccc(Cl)c1Cl)O2
61 | 6.25 | Clc1cc(Cl)c2c(c1)Oc1c(Cl)ccc(Cl)c1O2
62 | 6.39 | Clc1cc(Cl)c2c(c1)Oc1cc(Cl)cc(Cl)c1O2
63 | 6.6 | Clc1cc(Cl)c2c(c1Cl)Oc1c(Cl)ccc(Cl)c1O2
64 | 6.31 | Clc1cc2oc3c(Cl)c(Cl)ccc3c2cc1Cl
65 | 6.23 | Clc1ccc2c(c1)oc1c(Cl)c(Cl)cc(Cl)c12
66 | 6.11 | Clc1cc2c(oc3c(Cl)cccc32)c(Cl)c1Cl
67 | 6.85 | Clc1cc(Cl)c2c(c1)Oc1c(Cl)c(Cl)c(Cl)c(Cl)c1O2
68 | 7.59 | Clc1cc2c(c(Cl)c1Cl)Oc1c(Cl)c(Cl)cc(Cl)c1O2
69 | 6.38 | Clc1ccc(Cl)c2c1Oc1c(Cl)ccc(Cl)c1O2
70 | 6.1 | Clc1ccc2c(c1)Oc1cc(Cl)c(Cl)c(Cl)c1O2
71 | 6.25 | Clc1ccc2c(c1)Oc1c(Cl)c(Cl)cc(Cl)c1O2
72 | 6.86 | Clc1cc2c(c(Cl)c1Cl)Oc1cccc(Cl)c1O2
73 | 6.25 | Clc1cc(Cl)c2oc3c(Cl)c(Cl)ccc3c2c1
74 | 6.1 | Clc1cc(Cl)c2c(c1Cl)Oc1cccc(Cl)c1O2
75 | 6.24 | Clc1cc(Cl)c2oc3c(Cl)c(Cl)cc(Cl)c3c2c1
